# Patent US6573293B2, “Pyrrole substituted 2-indolinone protein kinase inhibitors” (Sugen, Inc., priority 2000, dated 2003)
# What was measured:
# [1] = target: T1, EGFR (Homo sapiens, UniProt P00533); assay: cell EGF assay; assay type: cell-based
# T1 construct: A431 cell lysate (SUGEN, Inc.); host or cells: A431
# Procedure: Several of the assays described herein are performed in an ELISA (Enzyme-Linked Immunosorbent Sandwich Assay) format (Voller, et al., 1980, “Enzyme-Linked Immunosorbent Assay,” Manual of Clinical Immunology, 2d ed., Rose and Friedman, Am. Soc. Of Microbiology, Washington, D.C., pp. 359-371). The general procedure is as follows: a compound is introduced to cells expressing the test kinase, either naturally or recombinantly, for a selected period of time after which, if the test kinase is a receptor, a ligand known to activate the receptor is added. The cells are lysed and the lysate is transferred to the wells of an ELISA plate previously coated with a specific antibody recognizing the substrate of the enzymatic phosphorylation reaction. Non-substrate components of the cell lysate are washed away and the amount of phosphorylation on the substrate is detected with an antibody specifically recognizing phosphotyrosine compared with control cells that were not contacted with a test compound.
# [2] = target: T2, GST-Flk1 (Mus musculus, UniProt P35918); assay: GST-FLK-1 bioassay (bio flkGST); assay type: biochemical
# T2 construct: GST-Flk1cd purified from sf9 recombinant baculovirus transformation; host or cells: Sf9 (baculovirus)
# Procedure: This assay analyzes the tyrosine kinase activity of GST-Flk1 on poly(glu,tyr) peptides.
# Preparation of poly(glu,tyr)(pEY) coated assay plates: Coat 2 ug/well of poly(glu,tyr)(pEY) in 100 ul PBS, hold at room temperature for 2 hours or at 4° C. overnight. Cover plates well to prevent evaporation.
# When all reagents have dissolved, adjust the pH to 7.2 with HCl. Bring total volume to 1 L with dH2O.
# PBST Buffer: to 1 L of PBS Buffer, add 1.0 ml Tween-20.
# Adjust pH to 7.2 with HCl. Add 10 g BSA, stir to dissolve. Bring total volume to 1 L with dH2O. Filter to remove particulate matter.
# Adjust total volume to 1 L with PBS buffer, filter to remove particulate matter.
# GST-Flk1cd purified from sf9 recombinant baculovirus transformation (SUGEN, Inc.).
# Add 10 N NaOH until EDTA dissolves. Adjust pH to 8.0. Adjust total volume to 100 ml with dH2O.
# Anti-phosphotyrosine monoclonal antibody conjugated to horseradish peroxidase (PY99 HRP, Santa Cruz Biotech).
# 2,2′-Azinobis(3-ethylbenzthiazoline-6-sulfonic acid (ABTS, Moss, Cat. No. ABST).
# Coat Corning 96-well ELISA plates with 2 μg of polyEY peptide in sterile PBS as described in step 3 of Materials and Reagents.
# Remove unbound liquid from wells by inverting plate. Wash once with TBST. Pat the plate on a paper towel to remove excess liquid.
# Add 100 μl of 1% BSA in PBS to each well. Incubate, with shaking, for 1 hr. at room temperature.
# Soak wells with 50 mM HEPES (pH7.5) (150 μl/well).
# Dilute test compound with dH2O/4% DMSO to 4 times the desired final assay concentration in 96-well polypropylene plates.
# Add 25 μl diluted test compound to ELISA plate. In control wells, place 25 μl of dH2O/4% DMSO.
# Add 25 μl 0.5M EDTA to negative control wells.
# Dilute GST-Flk1 to 0.005 μg (5 ng)/well with KDB.
# Add 50 μl of diluted enzyme to each well.
# Incubate, with shaking, for 15 minutes at room temperature.
# Wash 3×with TBST and pat plate on paper towel to remove excess liquid.
# Incubate, with shaking, for 90 min. at room temperature.
# Add 100 μl of room temperature ABTS solution to each well.
# Stop reaction by adding 20 μl of 10% SDS to each well.
# [3] = target: T3, PDGFR-β (Homo sapiens, UniProt P09619); assay: PDGFR bioassay (bio PDGF); assay type: biochemical
# T3 construct: host or cells: NIH 3T3
# Procedure: Corning 96-well Elisa plates
# 28D4C10 monoclonal anti-PDGFR antibody (SUGEN, Inc.).
# Blocking Buffer (same as for EGFR bioassay).
# PDGFR-β expressing NIH 3T3 cell lysate (SUGEN, Inc.).
# Kinase buffer phosphorylation mix: for 10 ml, mix 250 μl 1M TRIS, 200 μl 5M NaCl, 100 μl 1M MnCl2 and 50 μl 100 mM Triton X-100 in enough dH2O to make 10 ml.
# (§1) NUNC 96-well V bottom polypropylene plates.
# Rabbit polyclonal anti-phosphotyrosine serum (SUGEN, Inc.).
# Goat anti-rabbit IgG peroxidase conjugate (Biosource Cat. No. ALI0404).
# Hydrogen peroxide, 30% solution.
# Coat Corning 96 well ELISA plates with 0.5 μg 28D4C10 in 100 μl PBS per well, store overnight at 4° C.
# Remove unbound 28D4C10 from wells by inverting plate to remove liquid. Wash 1×with dH2O. Pat the plate on a paper towel to remove excess liquid.
# Add 150 μl of Blocking Buffer to each well. Incubate for 30 min. at room temperature with shaking.
# Wash plate 3×with deionized water, then once with TBST. Pat plate on a paper towel to remove excess liquid and bubbles.
# Dilute lysate in HNTG (10 μg lysate/100 μl HNTG).
# Add 100 μl of diluted lysate to each well. Shake at room temperature for 60 min.
# Wash plates as described in Step 4.
# Add 80 μl working kinase buffer mix to ELISA plate containing captured PDGFR.
# Add 10 μl diluted test compound to ELISA plate. To control wells, add 10 μl TBS+10% DMSO. Incubate with shaking for 30 minutes at room temperature.
# Add 10 μl ATP directly to all wells except negative control well (final well volume should be approximately 100 μl with 20 μM ATP in each well.) Incubate 30 minutes with shaking.
# Stop reaction by adding 10 μl of EDTA solution to each well.
# Wash 4×with deionized water, twice with TBST.
# Add 100 μl anti-phosphotyrosine (1:3000 dilution in TBST) per well. Incubate with shaking for 30-45 min. at room temperature.
# Incubate with shaking for 30 min. at room temperature.
# Add 100 μl of ABTS/H2O2 solution to each well.
# Incubate 10 to 30 minutes with shaking. Remove any bubbles.
# If necessary stop reaction with the addition of 100 μl 0.2 M HCl per well.
# [4] = target: T4, HER-2 kinase (Homo sapiens, UniProt P04626); assay: Cellular HER-2 kinase assay; assay type: cell-based; conditions: read-out: Her2 Kinase IC50
# T4 construct: Use EGFr/HER-2 chimera/3T3-C7 cell line for this assay; It is expressed in mouse NIH 3T3 clone C7 cells; P00533 (Epidermal growth factor receptor)
# Procedure: Cellular HER-2 Kinase Assay
# This assay is used to measure HER-2 kinase activity in whole cells in an ELISA format.
# Fetal Bovine Serum (FBS, GIBCO Catalog #16000-044), heat inactivated in a water bath for 30 min. at 56° C.
# Corning 96-well ELISA Plates.
# as §1
# SUMO 1: monoclonal anti-EGFR antibody (SUGEN, Inc.).
# Blocking Buffer: 5% Carnation Instant Milk® in PBS.
# Suspend powder in 100 uL of 10 mM HCl. Add 100 uL 10 mM NaOH. Add 800 uL PBS and transfer to an Eppendorf tube, store at −20° C. until ready to use.
# Na3VO4. […] Adjust pH to 10. Boil in microwave for one minute (solution becomes clear). Cool to room temperature. Adjust pH to 10. Repeat heating/cooling cycle until pH remains at 10.
# Rabbit polyclonal antiserum specific for phosphotyrosine (anti-Ptyr antibody, SUGEN, Inc.).
# Affinity purified antiserum, goat anti-rabbit IgG antibody, peroxidase conjugate (Biosource Cat #ALI0404).
# 30% Hydrogen peroxide solution.
# Coat Corning 96 well ELISA plates with SUMO1 at 1.0 ug per well in PBS, 100 ul final volume/well. Store overnight at 4° C.
# On day of use, remove coating buffer and wash plate 3 times with dH2O and once with TBST buffer. All washes in this assay should be done in this manner, unless otherwise specified.
# Add 100 ul of Blocking Buffer to each well. Incubate plate, with shaking, for 30 min. at room temperature. Just prior to use, wash plate.
# Use EGFr/HER-2 chimera/3T3-C7 cell line for this assay.
# Choose dishes having 80-90% confluence. Collect cells by trypsinization and centrifuge at 1000 rpm at room temperature for 5 min.
# Resuspend cells in starve medium and count with trypan blue. Viability above 90% is required. Seed cells in starve medium at a density of 2,500 cells per well, 90 ul per well, in a 96 well microtiter plate. Incubate seeded cells overnight at 37° under 5% CO2.
# Start the assay two days after seeding.
# Test compounds are dissolved in 4% DMSO. Samples are then further diluted directly on plates with starve-DMEM. Typically, this dilution will be 1:10 or greater.
# Incubate under 5% CO2 at 37° C. for 2 hours.
# Prepare fresh HNTG* sufficient for 100 ul per well; place on ice.
# After 2 hour incubation with test compound, add prepared EGF ligand to cells, 50 ul per well, for a final concentration of 50 nM. Positive control wells receive the same amount of EGF. […] Incubate at 37° C. for 10 min.
# Remove test compound, EGF, and DMEM. Wash cells once with PBS.
# Transfer HNTG* to cells, 100 ul per well. Place on ice for 5 minutes. Meanwhile, remove blocking buffer from ELISA plate and wash.
# Scrape cells from plate with a micropipettor and homogenize cell material by repeatedly aspirating and dispensing the HNTG* lysis buffer. Transfer lysate to a coated, blocked, washed ELISA plate. Or, use a Costar transfer cartridge to transfer lysate to the plate.
# Incubate, with shaking, at room temperature for 1 hr.
# Remove lysate, wash. Transfer freshly diluted anti-Ptyr antibody (1:3000 in TBST) to ELISA plate, 100 ul per well.
# Incubate, with shaking, at room temperature, for 30 min.
# Remove anti-Ptyr antibody, wash. Transfer freshly diluted BIOSOURCE antibody to ELISA plate (1:8000 in TBST, 100 ul per well).
# Incubate, with shaking, at room temperature for 30 min.
# Remove BIOSOURCE antibody, wash. Transfer freshly prepared ABTS/H2O2 solution to ELISA plate, 100 ul per well.
# Stop reaction with the addition of 100 ul of 0.2M HCl per well.
# [5] = target: T1, EGFR; assay: EGFR bioassay (bio EGF); assay type: biochemical
# Procedure: This assay is used to the in vitro kinase activity of FGF1-R in an ELISA assay.
# 1. Corning 96-well Elisa plates.
# 2. SUMO1 monoclonal anti-EGFR antibody (SUGEN, Inc.).
# 5. Blocking Buffer: for 100 ml, mix 5.0 g Carnation Instant Non-fat Milk® with 100 ml of PBS.
# 6. A431 cell lysate (SUGEN, Inc.).
# 9. […] This reagent should be made up immediately prior to use and kept on ice.
# 11. […] Prepare just prior to use, keep on ice.
# 12. NUNC 96-well V bottom polypropylene plates.
# 14. Rabbit polyclonal anti-phosphotyrosine serum (SUGEN, Inc.).
# 15. Goat anti-rabbit IgG peroxidase conjugate (Biosource Cat. No. ALI0404).
# 17. 30% Hydrogen peroxide.
# 1. Coat Corning 96 well ELISA plates with 0.5 μg SUMO1 in 100 μl PBS per well, store overnight at 4° C.
# 2. Remove unbound SUMO1 from wells by inverting plate to remove liquid. Wash 1×with dH2O. Pat the plate on a paper towel to remove excess liquid.
# 3. Add 150 μl of Blocking Buffer to each well. Incubate, with shaking, for 30 min. at room temperature.
# 4. Wash plate 3×with deionized water, then once with TBST. Pat plate on a paper towel to remove excess liquid and bubbles.
# 5. Dilute lysate in PBS (7 μg lysate/100 μl PBS).
# 6. Add 100 μl of diluted lysate to each well. Shake at room temperature for 1 hr.
# 7. Wash plates as in 4, above.
# 8. Add 120 μl TBS to ELISA plate containing captured EGFR.
# 10. Add 13.5 μl diluted test compound to ELISA plate. To control wells, add 13.5 μl TBS in 10% DMSO.
# 11. Incubate, with shaking, for 30 minutes at room temperature.
# 12. Add 15 μl phosphorylation mix to all wells except negative control well. Final well volume should be approximately 150 μl with 3 μM ATP/5 mM MnCl2 final concentration in each well. Incubate with shaking for 5 minutes.
# 13. Stop reaction by adding 16.5 μl of EDTA solution while shaking. Shake for additional 1 min.
# 14. Wash 4×with deionized water, 2×with TBST.
# 15. Add 100 μl anti-phosphotyrosine (1:3000 dilution in TBST) per well. Incubate, with shaking, for 30-45 min. at room temperature.
# 17. […] Incubate with shaking for 30 min. at room temperature.
# 19. Add 100 μl of ABTS/H2O2 solution to each well.
# 20. Incubate 5 to 10 minutes with shaking. Remove any bubbles.
# 21. If necessary, stop reaction by adding 100 μl 0.2 M HCl per well.
# T4 sequence (P04626 720-987 limits assumed): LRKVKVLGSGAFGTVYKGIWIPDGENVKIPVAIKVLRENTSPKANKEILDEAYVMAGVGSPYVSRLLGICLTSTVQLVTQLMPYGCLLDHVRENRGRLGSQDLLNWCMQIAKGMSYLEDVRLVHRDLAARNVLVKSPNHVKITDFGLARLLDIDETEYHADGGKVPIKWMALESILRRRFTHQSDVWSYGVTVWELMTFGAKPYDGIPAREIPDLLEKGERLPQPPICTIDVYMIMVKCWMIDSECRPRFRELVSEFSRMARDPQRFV
# T3 sequence (P09619 33-1106): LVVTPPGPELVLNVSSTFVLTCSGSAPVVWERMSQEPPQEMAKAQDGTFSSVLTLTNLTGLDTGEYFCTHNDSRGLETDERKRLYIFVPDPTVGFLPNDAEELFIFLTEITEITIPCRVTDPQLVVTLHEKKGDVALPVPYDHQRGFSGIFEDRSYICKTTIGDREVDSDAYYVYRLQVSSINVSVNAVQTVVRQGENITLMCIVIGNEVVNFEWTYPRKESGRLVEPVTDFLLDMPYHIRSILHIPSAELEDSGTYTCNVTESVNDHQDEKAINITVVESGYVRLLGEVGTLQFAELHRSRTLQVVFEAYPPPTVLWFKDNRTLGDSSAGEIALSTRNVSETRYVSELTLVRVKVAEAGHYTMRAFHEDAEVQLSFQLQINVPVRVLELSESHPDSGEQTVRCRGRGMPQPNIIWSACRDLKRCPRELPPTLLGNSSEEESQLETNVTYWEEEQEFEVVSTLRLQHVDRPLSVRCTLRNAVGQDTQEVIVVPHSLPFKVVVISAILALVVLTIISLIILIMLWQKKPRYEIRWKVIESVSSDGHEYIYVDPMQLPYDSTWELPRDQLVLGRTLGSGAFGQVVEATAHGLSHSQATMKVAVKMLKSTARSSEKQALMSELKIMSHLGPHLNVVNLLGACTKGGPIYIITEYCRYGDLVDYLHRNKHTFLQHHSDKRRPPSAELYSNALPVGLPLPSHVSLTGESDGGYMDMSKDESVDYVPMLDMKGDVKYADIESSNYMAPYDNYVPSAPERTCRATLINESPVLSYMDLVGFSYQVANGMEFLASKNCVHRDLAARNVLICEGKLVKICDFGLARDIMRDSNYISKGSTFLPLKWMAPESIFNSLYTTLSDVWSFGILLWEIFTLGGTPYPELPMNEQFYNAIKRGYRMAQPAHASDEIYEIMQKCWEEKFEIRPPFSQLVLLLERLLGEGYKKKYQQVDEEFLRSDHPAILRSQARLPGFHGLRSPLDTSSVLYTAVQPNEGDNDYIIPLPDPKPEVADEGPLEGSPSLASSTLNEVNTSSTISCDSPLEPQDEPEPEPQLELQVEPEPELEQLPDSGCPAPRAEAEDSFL
# T1 sequence (P00533 25-1210): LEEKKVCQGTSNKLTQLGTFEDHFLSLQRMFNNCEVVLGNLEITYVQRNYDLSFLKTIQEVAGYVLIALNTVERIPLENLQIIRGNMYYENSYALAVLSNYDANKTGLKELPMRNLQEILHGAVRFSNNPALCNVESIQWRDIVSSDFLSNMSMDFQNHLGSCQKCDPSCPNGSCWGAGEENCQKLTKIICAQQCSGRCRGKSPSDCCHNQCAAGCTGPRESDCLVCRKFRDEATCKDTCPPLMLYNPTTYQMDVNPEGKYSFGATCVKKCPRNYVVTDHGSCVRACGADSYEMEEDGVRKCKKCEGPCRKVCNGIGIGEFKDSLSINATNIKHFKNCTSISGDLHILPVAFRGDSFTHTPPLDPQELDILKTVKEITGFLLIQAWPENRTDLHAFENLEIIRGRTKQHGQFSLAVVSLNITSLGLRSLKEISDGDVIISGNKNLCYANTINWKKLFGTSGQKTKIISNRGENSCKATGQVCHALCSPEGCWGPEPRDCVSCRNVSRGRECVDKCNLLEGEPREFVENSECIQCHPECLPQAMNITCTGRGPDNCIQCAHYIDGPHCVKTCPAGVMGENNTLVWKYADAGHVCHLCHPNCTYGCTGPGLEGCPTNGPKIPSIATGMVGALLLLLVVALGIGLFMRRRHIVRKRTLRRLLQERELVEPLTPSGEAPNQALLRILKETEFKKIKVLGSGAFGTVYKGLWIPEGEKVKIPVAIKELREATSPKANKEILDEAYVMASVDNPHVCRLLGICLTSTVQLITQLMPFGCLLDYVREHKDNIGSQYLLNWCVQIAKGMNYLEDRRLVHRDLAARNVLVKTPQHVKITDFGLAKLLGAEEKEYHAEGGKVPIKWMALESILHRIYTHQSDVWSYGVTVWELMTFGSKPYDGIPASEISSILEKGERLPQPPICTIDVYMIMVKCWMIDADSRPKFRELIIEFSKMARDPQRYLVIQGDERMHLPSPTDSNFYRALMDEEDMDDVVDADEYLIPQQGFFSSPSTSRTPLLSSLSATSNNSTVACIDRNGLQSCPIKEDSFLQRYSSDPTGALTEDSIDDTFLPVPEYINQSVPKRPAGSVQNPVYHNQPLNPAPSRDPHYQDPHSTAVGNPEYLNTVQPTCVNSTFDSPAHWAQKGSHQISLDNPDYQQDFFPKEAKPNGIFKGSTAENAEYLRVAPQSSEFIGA
# T2 sequence (P35918 784-1345 limits assumed): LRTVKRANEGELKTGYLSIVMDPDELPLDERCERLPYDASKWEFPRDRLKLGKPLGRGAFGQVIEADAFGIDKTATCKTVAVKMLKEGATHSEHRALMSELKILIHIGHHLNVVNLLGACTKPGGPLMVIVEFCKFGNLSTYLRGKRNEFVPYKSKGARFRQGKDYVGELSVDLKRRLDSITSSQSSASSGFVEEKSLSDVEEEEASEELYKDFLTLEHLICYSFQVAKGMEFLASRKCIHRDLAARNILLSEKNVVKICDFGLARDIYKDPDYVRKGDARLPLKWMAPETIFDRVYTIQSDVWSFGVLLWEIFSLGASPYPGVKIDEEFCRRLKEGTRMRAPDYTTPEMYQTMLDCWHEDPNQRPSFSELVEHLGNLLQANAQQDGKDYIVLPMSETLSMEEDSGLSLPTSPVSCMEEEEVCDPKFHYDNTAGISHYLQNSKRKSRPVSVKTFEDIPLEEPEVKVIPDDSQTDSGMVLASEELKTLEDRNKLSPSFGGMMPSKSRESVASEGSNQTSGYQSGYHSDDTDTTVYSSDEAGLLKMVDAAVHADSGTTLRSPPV
compound,measurement,setting,value
"Cc1[nH]c(/C=C2\C(=O)Nc3ccc(Cl)cc32)c(C)c1C(=O)NCCN(C)C [Example 50, 5-(5-Chloro-2-oxo-1,2-dihydroindol-3-ylidenemethyl)-2,4-dimethyl-1H-pyrrole-3-carboxylic acid (2-dimethylamino-ethyl)amide]",IC50,[1],20.3 µM
"CCN(CC)CCCNC(=O)c1c(C)[nH]c(/C=C2\C(=O)Nc3cccc(C(=O)Nc4ccc(OC)c(Cl)c4)c32)c1C [Example 69, 3-[4-(3-Diethylamino-propylcarbamoyl)-3,5-dimethyl-1H-pyrrol-2-ylmethylene]-2-oxo-2,3-dihydro-1H-indole-4-carboxylic acid (3-chloro-4-methoxy-phenyl)amide]",IC50,[2],0.3 µM
same,IC50,[3],56.5 µM
same,IC50,[1],97.5 µM
"Cc1cc(C(=O)NCCCN2CCCC2)[nH]c1/C=C1\C(=O)Nc2ccc(Br)cc21 [Example 6, 5-(5-Bromo-2-oxo-1,2-dihydroindol-3-ylidenemethyl)-4-methyl-1H-pyrrole-2-carboxylic acid (3-pyrrolidin-1-ylpropyl)amide]",IC50,[2],4.04 µM
same,IC50,[4],2.43 µM
same,IC50,[5],3.26 µM
same,IC50,[1],7.82 µM
"Cc1[nH]c(/C=C2\C(=O)Nc3cc(-c4ccccc4)ccc32)c(C)c1C(=O)NCCN(C)C [Example 49, 2,4-Dimethyl-5-(2-oxo-6-phenyl-1,2-dihydroindol-3-ylidenemethyl)-1H-pyrrole-3-carboxylic acid (2-dimethylamino-ethyl)amide]",IC50,[1],43.9 µM
"Cc1[nH]c(/C=C2\C(=O)Nc3ccc(-c4ccccc4)cc32)c(C)c1C(=O)NCCCN(C)C [Example 66, 2,4-Dimethyl-5-(2-oxo-5-phenyl-1,2-dihydroindol-3-ylidenemethyl)-1H-pyrrole-3-carboxylic acid (3-dimethylamino-propyl)amide]",IC50,[2],< 0.05 µM
same,IC50,[4],2.76 µM
same,IC50,[5],> 100 µM
same,IC50,[1],11.8 µM
"COc1ccccc1-c1ccc2c(c1)NC(=O)/C2=C\c1[nH]c(C)c(C(=O)NCCN(C)C)c1-c1ccccc1 [Example 45, 5-[6-(2-Methoxy-phenyl)-2-oxo-1,2-dihydroindol-3-ylidenemethyl]-2-methyl-4-phenyl-1H-pyrrole-3-carboxylic acid (2-dimethylamino-ethyl)amide]",IC50,[2],1.71 µM
same,IC50,[1],30 µM
"Cc1[nH]c(/C=C2\C(=O)Nc3cc(-c4ccccc4)ccc32)c(C)c1C(=O)NCCN1CCCC1 [Example 60, 2,4-Dimethyl-5-(2-oxo-6-phenyl-1,2-dihydroindol-3-ylidenemethyl)-1H-pyrrole-3-carboxylic acid (2-pyrrolidin-1-yl-ethyl)amide]",IC50,[3],< 0.78 µM
same,IC50,[4],> 100 µM
same,IC50,[5],> 100 µM
same,IC50,[1],> 100 µM
"CCN(CC)CCNC(=O)c1c(C)[nH]c(/C=C2\C(=O)Nc3cc(-c4ccccc4)ccc32)c1C [Example 59, 2,4-Dimethyl-5-(2-oxo-6-phenyl-1,2-dihydroindol-3-ylidenemethyl)-1H-pyrrole-3-carboxylic acid (2-diethylaminoethyl)amide]",IC50,[3],< 0.78 µM
same,IC50,[4],> 100 µM
same,IC50,[5],> 100 µM
same,IC50,[1],> 100 µM
"Cc1[nH]c(/C=C2\C(=O)Nc3cc(-c4ccccc4)ccc32)c(C)c1C(=O)NCCCn1ccnc1 [Example 61, 2,4-Dimethyl-5-(2-oxo-6-phenyl-1,2-dihydroindol-3-ylidenemethyl)-1H-pyrrole-3-carboxylic acid (3-imidazol-1-ylpropyl)amide]",IC50,[3],< 0.78 µM
same,IC50,[4],> 100 µM
same,IC50,[5],> 100 µM
same,IC50,[1],> 100 µM
"CCN(CC)CCCNC(=O)c1[nH]c(/C=C2\C(=O)Nc3ccc(Br)cc32)c2c1CCCC2 [Example 18, 3-(5-Bromo-2-oxo-1,2-dihydroindol-3-ylidenemethyl)-4,5,6,7-tetrahydro-2H-isoindole-1-carboxylic acid (3-diethylaminopropyl)amide]",IC50,[2],2.67 µM
same,IC50,[4],4.99 µM
same,IC50,[5],2.57 µM
same,IC50,[1],9.23 µM
"CCN(CC)CCCNC(=O)c1[nH]c(/C=C2\C(=O)Nc3cc(-c4ccccc4)ccc32)cc1C [Example 14, 3-Methyl-5-(2-oxo-6-phenyl-1,2-dihydroindol-3-ylidenemethyl)-1H-pyrrole-2-carboxylic acid (3-diethylaminopropyl)amide]",IC50,[2],13 µM
same,IC50,[3],42.4 µM
same,IC50,[4],66 µM
same,IC50,[5],> 100 µM
"COc1ccccc1-c1ccc2c(c1)NC(=O)/C2=C\c1[nH]c(C)c(C(=O)NCCN(C)C)c1C [Example 54, 5-[6-(2-Methoxy-phenyl)-2-oxo-1,2-dihydroindol-3-ylidenemethyl)-2,4-dimethyl-1H-pyrrole-3-carboxylic acid (2-dimethylamino-ethyl)amide]",IC50,[2],1.98 µM
same,IC50,[4],7.02 µM
same,IC50,[5],23.9 µM
same,IC50,[1],9.76 µM
"CC(=O)c1c(/C=C2\C(=O)Nc3ccc(Br)cc32)[nH]c(C(=O)NCCCO)c1C [Example 32, 4-Acetyl-5-(5-bromo-2-oxo-1,2-dihydroindol-3-ylidenemethyl)-3-methyl-1H-pyrrole-2-carboxylic acid (3-hydroxy-propyl)amide]",IC50,[2],45.7 µM
same,IC50,[3],5.94 µM
same,IC50,[4],> 100 µM
same,IC50,[5],> 100 µM
"Cc1[nH]c(/C=C2\C(=O)Nc3ccc(Br)cc32)c(C)c1C(=O)NCCCn1ccnc1 [Example 53, 5-(5-Bromo-2-oxo-1,2-dihydroindol-3-ylidenemethyl)-2,4-dimethyl-1H-pyrrole-3-carboxylic acid (3-imidazol-1-ylpropyl)amide]",IC50,[3],< 0.78 µM
same,IC50,[4],> 100 µM
same,IC50,[5],> 100 µM
same,IC50,[1],> 100 µM
"CCN(CC)CCCNC(=O)c1[nH]c(/C=C2\C(=O)Nc3ccc(Br)cc32)c(C(C)=O)c1C [Example 29, 4-Acetyl-5-(5-bromo-2-oxo-1,2-dihydroindol-3-ylidenemethyl)-3-methyl-1H-pyrrole-2-carboxylic acid (3-diethylaminopropyl)amide]",IC50,[2],10.1 µM
same,IC50,[3],> 100 µM
same,IC50,[4],3.98 µM
same,IC50,[5],26.7 µM
"CCN(CC)CCCNC(=O)c1[nH]c(/C=C2\C(=O)Nc3ccc(Br)cc32)cc1C [Example 13, 5-(5-Bromo-2-oxo-1,2-dihydroindol-3-ylidenemethyl)-3-methyl-1H-pyrrole-2-carboxylic acid (3-diethylaminopropyl)amide]",IC50,[2],> 20 µM
same,IC50,[3],81.9 µM
same,IC50,[4],2.66 µM
same,IC50,[5],8.17 µM
"CC(=O)c1c(/C=C2\C(=O)Nc3ccc(Br)cc32)[nH]c(C(=O)NCCc2ccc(O)cc2)c1C [Example 36, 4-Acetyl-5-(5-bromo-2-oxo-1,2-dihydroindol-3-ylidenemethyl)-3-methyl-1H-pyrrole-2-carboxylic acid [2-(4-hydroxy-phenyl)-ethyl]amide]",IC50,[2],> 20 µM
same,IC50,[3],> 100 µM
same,IC50,[4],> 100 µM
same,IC50,[5],> 100 µM
"CCN(CC)CCCNC(=O)c1c(C)[nH]c(/C=C2\C(=O)Nc3cc(-c4ccccc4)ccc32)c1C [Example 68, 2,4-Dimethyl-5-(2-oxo-6-phenyl-1,2-dihydroindol-3-ylidenemethyl)-1H-pyrrole-3-carboxylic acid (3-diethylaminopropyl)amide]",IC50,[2],1.16 µM
same,IC50,[3],0.03 µM
same,IC50,[4],34.1 µM
same,IC50,[1],23.5 µM
"CCCCc1ccc(-c2ccc3c(c2)NC(=O)/C3=C\c2[nH]c(C)c(C(=O)NCCN3CCCC3)c2C)cc1 [Example 75, 5-[6-(4-Butyl-phenyl)-2-oxo-1,2-dihydroindol-3-ylidenemethyl]-2,4-dimethyl-1H-pyrrole-3-carboxylic acid (2-pyrrolidin-1-yl-ethyl)amide]",IC50,[2],2.7 µM
same,IC50,[3],61.6 µM
same,IC50,[4],> 100 µM
same,IC50,[5],> 100 µM
"Cc1cc(C(=O)O)[nH]c1/C=C1\C(=O)N(C)c2ccccc21 [Example 2, 4-Methyl-5-(1-methyl-2-oxo-1,2-dihydroindol-3-ylidenemethyl)-1H-pyrrole-2-carboxylic acid]",IC50,[2],> 100 µM
same,IC50,[3],> 100 µM
same,IC50,[5],> 100 µM
same,IC50,[1],> 100 µM
"CC(=O)c1c(/C=C2\C(=O)Nc3ccc(Br)cc32)[nH]c(C(=O)NCCN2CCOCC2)c1C [Example 34, 4-Acetyl-5-(5-bromo-2-oxo-1,2-dihydroindol-3-ylidenemethyl)-3-methyl-1H-pyrrole-2-carboxylic acid (2-morpholin-4-yl-ethyl)amide]",IC50,[2],> 50 µM
same,IC50,[3],> 100 µM
same,IC50,[4],> 100 µM
same,IC50,[5],> 100 µM
"O=C1Nc2ccc(Br)cc2/C1=C/c1[nH]c(C(=O)NCCCN2CCCC2)c2c1CCCC2 [Example 19, 3-(5-Bromo-2-oxo-1,2-dihydroindol-3-ylidenemethyl)-4,5,6,7-tetrahydro-2H-isoindole-1-carboxylic acid (3-pyrrolidin-1-ylpropyl)amide]",IC50,[2],7.5 µM
same,IC50,[4],8.37 µM
same,IC50,[5],6.86 µM
same,IC50,[1],34.2 µM
"CCN(CC)CCNC(=O)c1[nH]c(/C=C2\C(=O)Nc3cc(-c4cccnc4)ccc32)c2c1CCCC2 [Example 20, 3-(2-Oxo-6-pyridin-3-yl-1,2-dihydroindol-3-ylidenemethyl)-4,5,6,7-tetrahydro-2H-isoindole-1-carboxylic acid (2-diethylaminoethyl)amide]",IC50,[2],11.5 µM
same,IC50,[4],8 µM
same,IC50,[5],> 100 µM
same,IC50,[1],41.2 µM
